Assay results published in patent US20070066646A1, “Compounds for Inhibiting Copper-Containing Amine Oxidases and Uses Thereof” (GENMEDICA THERAPEUTICS SL, priority 2005, published 2007).

Target: T1, Human SSAO (Homo sapiens, UniProt Q16853)
T1 construct: Human or mice adipose tissue homogenates, used as a source of SSAO activity; from tissue; host or cells: human adipose tissue homogenate
T1 sequence (Q16853 1-763): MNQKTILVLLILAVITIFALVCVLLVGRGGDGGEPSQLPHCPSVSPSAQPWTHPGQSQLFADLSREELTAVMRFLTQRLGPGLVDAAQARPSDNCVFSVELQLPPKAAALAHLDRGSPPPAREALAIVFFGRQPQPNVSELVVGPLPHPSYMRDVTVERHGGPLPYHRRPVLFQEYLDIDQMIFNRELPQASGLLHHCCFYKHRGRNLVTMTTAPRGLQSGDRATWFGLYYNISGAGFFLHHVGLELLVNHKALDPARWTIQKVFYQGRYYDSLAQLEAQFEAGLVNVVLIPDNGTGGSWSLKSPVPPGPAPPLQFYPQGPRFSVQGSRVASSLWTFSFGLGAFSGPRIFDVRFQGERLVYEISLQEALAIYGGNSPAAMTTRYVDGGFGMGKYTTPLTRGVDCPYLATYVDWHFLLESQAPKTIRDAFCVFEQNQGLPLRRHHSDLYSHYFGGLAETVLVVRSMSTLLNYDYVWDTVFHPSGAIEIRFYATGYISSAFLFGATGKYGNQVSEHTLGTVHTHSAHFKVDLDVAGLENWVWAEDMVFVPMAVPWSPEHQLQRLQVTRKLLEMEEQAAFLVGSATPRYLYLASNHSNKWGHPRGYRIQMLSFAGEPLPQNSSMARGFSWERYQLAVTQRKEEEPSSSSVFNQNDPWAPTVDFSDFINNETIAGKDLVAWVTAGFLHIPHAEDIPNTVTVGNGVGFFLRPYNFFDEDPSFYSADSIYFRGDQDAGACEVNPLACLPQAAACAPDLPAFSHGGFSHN
Experiment: SSAO activity determination (H2O2 detection with horseradish peroxidase/Amplex Red, benzylamine as substrate)
Type: biochemical
Conditions: human adipose tissue homogenates as SSAO source, 20 min preincubation at 37° C., semicarbazide control subtracted
Experimental: SSAO Activity Determination:
All assays were performed at 37° C. with SSAO from human or mice adipose tissue. The enzyme activity was measured through detection of hydrogen peroxide formed by the oxidation of benzylamine. This method is based on the horseradish peroxidase catalyzed hydrogen peroxide oxidation of 10-acetyl-3,7-dihydroxyphenoxazine (Molecular Probes A-6550), that produces resorufin a highly fluorescent product (excitation, 545 nm; emission, 590 nm) (Zhou and Panchuk-Voloshina, 1997). Human or mice adipose tissue homogenates, used as a source of SSAO activity, were preincubated in 96 well microplates for 20 min at 37° C. in 180 μL of 200 mM Phosphate buffer and H2O2-detecting mixture containing horseradish peroxidase (final concentration 1 U/mL) and Amplex Red reagent (60 μM) and different concentrations of inhibitors when necessary. Catalytic reaction was initiated by addition of 20 μL of benzylamine as substrate at 10 mM for human homogenates giving final concentrations of 100 μM and 1 mM respectively. Fluorescence intensity of the samples was measured continuously during 1 h (excitation, 545 nm; emission, 590 nm) and H2O2 concentration was calculated from calibration curves generated by serial dilutions of standard H2O2. To evaluate the amount of H2O2 formed specifically via SSAO-mediated reaction, semicarbazide 100 μM was included in the control wells subjected to the same treatments and these values were subtracted from the total amount of H2O2 formed.
The inhibition was measured as % decrease of the signal compared to a control without inhibitor. Blank values in absence of substrates were subtracted from the fluorescence for each experimental condition. The IC50 shown in Table 1 were calculated with GraphPad Prism 4 program.

SMILES | IC50 [µM]
O=C(NO)C1Cc2ccccc2C1 [compound 2] | 1.1 ± 0.04
CCCc1ccc(S(=O)(=O)NC(CO)C(=O)NO)cc1 (stereo not shown) [compound 8] | 0.066 ± 0.001
CCC(C)(C)c1ccc(S(=O)(=O)NC(CO)C(=O)NO)cc1 (stereo not shown) [compound 10] | 0.041 ± 0.008
O=C(NO)C(CO)NS(=O)(=O)c1ccc2ccccc2c1 (stereo not shown) [compound 13] | 0.067 ± 0.001
CC(O)C(NS(=O)(=O)c1ccc2ccccc2c1)C(=O)NO (stereo not shown) [compound 14] | 0.054 ± 0.007
O=C(CNS(=O)(=O)c1ccc2ccccc2c1)NO [compound 15] | 0.217 ± 0.039
Cc1ccc(S(=O)(=O)NC(CN)C(=O)NO)cc1 (stereo not shown) [compound 19] | 0.14 ± 0.03
CC(O)C(NS(=O)(=O)c1ccc2cccnc2c1)C(=O)NO (stereo not shown) [compound 20] | 0.789 ± 0.061
CN(C)c1cccc2ccc(S(=O)(=O)NC(CO)C(=O)NO)cc12 (stereo not shown) [compound 21] | 0.097 ± 0.021
Cc1ccc(C2(C(=O)NCc3ccc(C(=O)NO)cc3)CCCC2)cc1 [compound 24] | 0.334 ± 0.08
O=C(CCc1ccccc1O)NCc1ccc(C(=O)NO)cc1 [compound 25] | 0.941 ± 0.026
O=C(O)CCC(NC(=O)Cc1ccc(-c2ccccc2)cc1)C(=O)O (stereo not shown) [compound 26] | 0.125 ± 0.002
Cc1ccc(C2(C(=O)NC(CCC(=O)NO)C(=O)O)CCCC2)cc1 (stereo not shown) [compound 27] | 0.214 ± 0.041
Cc1ccc(CCCC(=O)NC(CCC(=O)O)C(=O)O)cc1 (stereo not shown) [compound 29] | 0.259 ± 0.062
Cc1ccc(/C=C/C(=O)NC(CCC(=O)O)C(=O)O)cc1 (stereo not shown) [compound 31] | 0.128 ± 0.03
NC(=O)C1CCCN1C(=O)c1ccc(-c2ccccc2)cc1 (stereo not shown) [compound 32] | 0.121 ± 0.047
NC(=O)C1CCCN1C(=O)c1cc2ccccc2cc1O (stereo not shown) [compound 34] | 0.147 ± 0.044
O=C(CCC(=O)Nc1ccccc1O)NO [compound 38] | 0.14 ± 0.01
Nc1ccc(C(=O)NCc2ccc(F)cc2)cc1O [compound 40] | 0.202 ± 0.026
Nc1ccc(O)c(C(=O)NCc2ccccc2)c1 [compound 47] | 0.41 ± 0.063
COc1cc(CNC(=O)c2cc(N)ccc2O)cc(OC)c1 [compound 50] | 0.577 ± 0.027
Nc1ccc(O)c(C(=O)NCCCc2ccccc2)c1 [compound 54] | 0.575 ± 0.023

Second part, the molecule after the results:

IC50 [µM] | SMILES
0.1 ± 0.03 | O=C(CNC(=O)c1ccc(Br)cc1)NO [compound 3]
0.25 ± 0.02 | O=C(NO)C(CO)NS(=O)(=O)c1ccc(-c2ccccc2)cc1 (stereo not shown) [compound 5]
0.3 ± 0.1 | CC(O)C(NS(=O)(=O)c1ccc(-c2ccccc2)cc1)C(=O)NO (stereo not shown) [compound 6]
1.9 ± 0.2 | NCC(NS(=O)(=O)c1ccc(-c2ccccc2)cc1)C(=O)NO (stereo not shown) [compound 7]
0.136 ± 0.04 | CCCc1ccc(S(=O)(=O)NC(C(=O)NO)C(C)O)cc1 (stereo not shown) [compound 9]
0.004 ± 0.0005 | CCC(C)(C)c1ccc(S(=O)(=O)NC(C(=O)NO)C(C)O)cc1 (stereo not shown) [compound 11]
1.57 ± 0.175 | CCC(C)(C)c1ccc(S(=O)(=O)NCC(=O)NO)cc1 [compound 12]
0.217 ± 0.039 | O=C(CNS(=O)(=O)c1ccc2ccccc2c1)NO [compound 17]
0.041 ± 0.001 | Cc1ccc(S(=O)(=O)NC(C(=O)NO)C(C)O)cc1 (stereo not shown) [compound 18]
0.369 ± 0.071 | CC(O)C(NS(=O)(=O)c1ccc2cccc(N(C)C)c2c1)C(=O)NO (stereo not shown) [compound 22]
0.7 ± 0.04 | Cc1ccc(S(=O)(=O)NCc2ccc(C(=O)NO)cc2)cc1 [compound 23]
0.229 ± 0.092 | O=C(O)CCC(NC(=O)CCCc1ccccc1)C(=O)O (stereo not shown) [compound 28]
0.165 ± 0.007 | O=C(O)CCC(NC(=O)c1cc2ccccc2[nH]1)C(=O)O (stereo not shown) [compound 30]
0.09 ± 0.002 | CC(C)(C)c1ccc(C(=O)N2CCCC2C(N)=O)cc1 (stereo not shown) [compound 33]
0.16 ± 0.031 | NC(=O)C1CCCN1C(=O)c1ccc2ncccc2c1 (stereo not shown) [compound 35]
0.078 ± 0.024 | NC(=O)C1CCCN1C(=O)c1nccc2ccccc12 (stereo not shown) [compound 36]
0.18 ± 0.01 | CC(CCc1ccccc1)NC(=O)CCC(=O)NO (stereo not shown) [compound 37]
0.39 ± 0.04 | CC(NC(=O)CCC(=O)NO)c1ccc2ccccc2c1 (stereo not shown) [compound 39]
0.25 ± 0.056 | Nc1ccc(C(=O)NCc2ccc3ccccc3c2)cc1O [compound 41]
0.173 ± 0.009 | Nc1ccc(C(=O)NCCOc2ccccc2)cc1O [compound 42]
0.337 ± 0.07 | CC(NC(=O)c1ccc(N)c(O)c1)c1ccc2ccccc2c1 (stereo not shown) [compound 43]
0.185 ± 0.031 | Nc1ccc(C(=O)NCCc2ccccc2)cc1O [compound 44]
0.146 ± 0.005 | Nc1ccc(C(=O)NCCCc2ccccc2)cc1O [compound 45]
0.401 ± 0.03 | Nc1ccc(C(=O)NCCCCc2ccccc2)cc1O [compound 46]
0.074 | Nc1ccc(O)c(C(=O)NCc2ccccc2O)c1 [compound 48]
0.253 ± 0.002 | Nc1ccc(O)c(C(=O)NCc2ccc(F)cc2)c1 [compound 49]
0.477 ± 0.064 | Nc1ccc(O)c(C(=O)NCc2ccc3ccccc3c2)c1 [compound 51]
0.189 ± 0.016 | Nc1ccc(O)c(C(=O)NCCOc2ccccc2)c1 [compound 52]
0.618 ± 0.118 | Nc1ccc(O)c(C(=O)NCCc2ccccc2)c1 [compound 53]
0.762 ± 0.06 | Nc1ccc(O)c(C(=O)NCCCCc2ccccc2)c1 [compound 55]
